Source: patent US20220119354A1, “DIAMINO-SUBSTITUTED PYRIDINES AND PYRIMIDINES AS HERBICIDES” (FMC Corporation, priority 2019, published 2022)

Legend:
Format in all cases: in vivo
[1] = test system: foxtail, giant (Setaria faberii); experiment: Test A preemergence, giant foxtail; conditions: 0 to 100 scale, 0 is no effect, 100 is complete control
How it was run: (§1)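 Visual injury scores (0 no effect to 100 complete control) were assigned about 10 d after treatment by comparison with untreated controls. Test chemicals, formulated in a surfactant-containing non-phytotoxic solvent, were applied to soil at planting or to plants at the one- to two-leaf stage.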

[2] = test system: kochia (Kochia scoparia); experiment: Test A postemergence, kochia; conditions: 0 to 100 scale, 0 no effect, 100 complete control
How it was run: as §1

[3] = test system: rice (Oryza sativa); experiment: Test B flooded paddy test, rice; conditions: Flood, 250 g ai/ha, applied to paddy water, 2-leaf stage, visual evaluation after 13 to 15 d
How it was run: (§2)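 Application was made into paddy water of pots flooded 3 cm deep at treatment, with seedlings at the 2-leaf stage. That flood level was kept throughout, and plants stayed under glass 13 to 15 d before visual assessment on a 0–100 control scale.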

[4] = test system: galium (catchweed bedstraw, Galium aparine); experiment: Test A postemergence, galium; conditions: 0 to 100 scale, 0 no effect, 100 complete control
How it was run: as §1

[5] = test system: barnyardgrass (Echinochloa crus-galli); experiment: Test B flooded paddy test, barnyardgrass; conditions: Flood, 250 g ai/ha, applied to paddy water, 2-leaf stage, visual evaluation after 13 to 15 d
How it was run: as §2

[6] = test system: pigweed (Amaranthus retroflexus); experiment: Test A postemergence, pigweed; conditions: 0 to 100 scale, 0 no effect, 100 complete control
How it was run: as §1

[7] = test system: foxtail, giant (Setaria faberii); experiment: Test A postemergence, giant foxtail; conditions: 0 to 100 scale, 0 no effect, 100 complete control
How it was run: as §1

[8] = test system: corn (Zea mays); experiment: Test A postemergence, corn; conditions: 0 to 100 scale, 0 no effect, 100 complete control
How it was run: as §1

[9] = test system: barnyardgrass (Echinochloa crus-galli); experiment: Test A postemergence, barnyardgrass; conditions: 0 to 100 scale, 0 no effect, 100 complete control
How it was run: as §1

[10] = test system: ryegrass, Italian (Lolium multiflorum); experiment: Test A postemergence, Italian ryegrass; conditions: 0 to 100 scale, 0 no effect, 100 complete control
How it was run: as §1

[11] = test system: pigweed (Amaranthus retroflexus); experiment: Test A preemergence, pigweed; conditions: 0 to 100 scale, 0 is no effect, 100 is complete control
How it was run: as §1

[12] = test system: ragweed (common ragweed, Ambrosia elatior); experiment: Test A postemergence, ragweed; conditions: 0 to 100 scale, 0 no effect, 100 complete control
How it was run: as §1

[13] = test system: blackgrass (Alopecurus myosuroides); experiment: Test A postemergence, blackgrass; conditions: 0 to 100 scale, 0 no effect, 100 complete control
How it was run: as §1

[14] = test system: ragweed (common ragweed, Ambrosia elatior); experiment: Test A preemergence, ragweed; conditions: 0 to 100 scale, 0 is no effect, 100 is complete control
How it was run: as §1

[15] = test system: ryegrass, Italian (Lolium multiflorum); experiment: Test A preemergence, Italian ryegrass; conditions: 0 to 100 scale, 0 is no effect, 100 is complete control
How it was run: as §1

[16] = test system: kochia (Kochia scoparia); experiment: Test A preemergence, kochia; conditions: 0 to 100 scale, 0 is no effect, 100 is complete control
How it was run: as §1

[17] = test system: barnyardgrass (Echinochloa crus-galli); experiment: Test A preemergence, barnyardgrass; conditions: 0 to 100 scale, 0 is no effect, 100 is complete control
How it was run: as §1

[18] = test system: wheat (Triticum aestivum); experiment: Test A postemergence, wheat; conditions: 0 to 100 scale, 0 no effect, 100 complete control
How it was run: as §1

[19] = test system: ducksalad (Heteranthera limosa); experiment: Test B flooded paddy test, ducksalad; conditions: Flood, 250 g ai/ha, applied to paddy water, 2-leaf stage, visual evaluation after 13 to 15 d
How it was run: as §2

[20] = test system: sedge, umbrella (small-flower umbrella sedge, Cyperus difformis); experiment: Test B flooded paddy test, umbrella sedge; conditions: Flood, 250 g ai/ha, applied to paddy water, 2-leaf stage, visual evaluation after 13 to 15 d
How it was run: as §2

| Structure (SMILES) | Foxtail, Giant plant response rating ([1]; 125 g ai/ha) | Foxtail, Giant plant response rating ([1]; 500 g ai/ha) | Plant response rating, Kochia ([2]; 125 g ai/ha) | Plant response rating, Kochia ([2]; 500 g ai/ha) | Plant response rating, Rice (0 to 100 scale, 0 is no effect, 100 is complete control) [3] | Plant response rating, Galium ([4]; 125 g ai/ha) | Plant response rating, Galium ([4]; 500 g ai/ha) | Plant response rating, Barnyardgrass (0 to 100 scale, 0 is no effect, 100 is complete control) [5] | Plant response rating, Pigweed ([6]; 125 g ai/ha) | Plant response rating, Pigweed ([6]; 500 g ai/ha) | Plant response rating, Foxtail, Giant ([7]; 125 g ai/ha) | Plant response rating, Foxtail, Giant ([7]; 500 g ai/ha) | Plant response rating, Corn ([8]; 125 g ai/ha) | Plant response rating, Corn ([8]; 500 g ai/ha) | Plant response rating, Barnyardgrass ([9]; 125 g ai/ha) | Plant response rating, Barnyardgrass ([9]; 500 g ai/ha) | Plant response rating, Ryegrass, Italian ([10]; 125 g ai/ha) | Plant response rating, Ryegrass, Italian ([10]; 500 g ai/ha) | Pigweed plant response rating ([11]; 125 g ai/ha) | Pigweed plant response rating ([11]; 500 g ai/ha) | other results |
| --- | --- | --- | --- | --- | --- | --- | --- | --- | --- | --- | --- | --- | --- | --- | --- | --- | --- | --- | --- | --- | --- |
| C[C@H](Nc1nc(N)c(C(F)(F)F)c(C(F)(F)F)n1)C1Cc2ccccc2C1 [Compound 68] | 0 | 0 | 20 | 40 | 0 | 0 | 0 | 0 | 0 | 0 | 0 | 0 | 20 | 0 | 0 | 0 | 0 | 0 | 0 | 0 | Plant response rating, Ragweed ([12]; 125 g ai/ha): 40; Plant response rating, Ragweed ([12]; 500 g ai/ha): 50; Plant response rating, Blackgrass ([13]; 125 g ai/ha): 0; Plant response rating, Blackgrass ([13]; 500 g ai/ha): 0; Ragweed plant response rating ([14]; 125 g ai/ha): 0; Ragweed plant response rating ([14]; 500 g ai/ha): 0; Ryegrass, Italian plant response rating ([15]; 125 g ai/ha): 0; Ryegrass, Italian plant response rating ([15]; 500 g ai/ha): 0; Kochia plant response rating ([16]; 125 g ai/ha): 0; Kochia plant response rating ([16]; 500 g ai/ha): 0; Barnyardgrass plant response rating ([17]; 125 g ai/ha): 0; Barnyardgrass plant response rating ([17]; 500 g ai/ha): 0; Plant response rating, Wheat ([18]; 125 g ai/ha): 0; Plant response rating, Wheat ([18]; 500 g ai/ha): 0; Plant response rating, Ducksalad (0 to 100 scale, 0 is no effect, 100 is complete control) [19]: 0; Plant response rating, Sedge, Umbrella (0 to 100 scale, 0 is no effect, 100 is complete control) [20]: 0 |
| C[C@H](Nc1ncc(C(F)(F)F)c(N)n1)c1cc2cccc(F)c2o1 [Compound 72] | 0 | 0 | 0 | 30 | 0 | 0 | 40 | 0 | 40 | 50 | 0 | 0 | 0 | 0 | 0 | 0 | 0 | 0 | 0 | 80 | Plant response rating, Ragweed ([12]; 125 g ai/ha): 0; Plant response rating, Ragweed ([12]; 500 g ai/ha): 30; Plant response rating, Blackgrass ([13]; 125 g ai/ha): 0; Plant response rating, Blackgrass ([13]; 500 g ai/ha): 0; Ragweed plant response rating ([14]; 125 g ai/ha): 0; Ragweed plant response rating ([14]; 500 g ai/ha): 0; Ryegrass, Italian plant response rating ([15]; 125 g ai/ha): 0; Ryegrass, Italian plant response rating ([15]; 500 g ai/ha): 0; Kochia plant response rating ([16]; 125 g ai/ha): 0; Kochia plant response rating ([16]; 500 g ai/ha): 0; Barnyardgrass plant response rating ([17]; 125 g ai/ha): 0; Barnyardgrass plant response rating ([17]; 500 g ai/ha): 0; Plant response rating, Wheat ([18]; 125 g ai/ha): 0; Plant response rating, Wheat ([18]; 500 g ai/ha): 0; Plant response rating, Ducksalad (0 to 100 scale, 0 is no effect, 100 is complete control) [19]: 0; Plant response rating, Sedge, Umbrella (0 to 100 scale, 0 is no effect, 100 is complete control) [20]: 0 |
| C[C@H](Nc1ncc(C(F)(F)F)c(N)n1)c1cc2c(F)cccc2o1 [Compound 74] | 0 | 0 | 20 | 60 | 0 | 0 | 50 | 0 | 60 | 90 | 0 | 0 | 0 | 0 | 0 | 0 | 0 | 0 | 0 | 10 | Plant response rating, Ragweed ([12]; 125 g ai/ha): 20; Plant response rating, Ragweed ([12]; 500 g ai/ha): 30; Plant response rating, Blackgrass ([13]; 125 g ai/ha): 0; Plant response rating, Blackgrass ([13]; 500 g ai/ha): 0; Ragweed plant response rating ([14]; 125 g ai/ha): 0; Ragweed plant response rating ([14]; 500 g ai/ha): 40; Ryegrass, Italian plant response rating ([15]; 125 g ai/ha): 0; Ryegrass, Italian plant response rating ([15]; 500 g ai/ha): 0; Kochia plant response rating ([16]; 125 g ai/ha): 0; Kochia plant response rating ([16]; 500 g ai/ha): 0; Barnyardgrass plant response rating ([17]; 125 g ai/ha): 0; Barnyardgrass plant response rating ([17]; 500 g ai/ha): 0; Plant response rating, Wheat ([18]; 125 g ai/ha): 0; Plant response rating, Wheat ([18]; 500 g ai/ha): 0; Plant response rating, Ducksalad (0 to 100 scale, 0 is no effect, 100 is complete control) [19]: 0; Plant response rating, Sedge, Umbrella (0 to 100 scale, 0 is no effect, 100 is complete control) [20]: 0 |
| C[C@H](Nc1ncc(C(F)(F)F)c(N)n1)c1cc2ccccc2n1C [Compound 76] | 0 | 0 | 0 | 0 | 0 | 30 | 30 | 0 | 0 | 0 | 0 | 0 | 0 | 0 | 0 | 0 | 0 | 0 | 0 | 0 | Plant response rating, Ragweed ([12]; 125 g ai/ha): 0; Plant response rating, Ragweed ([12]; 500 g ai/ha): 30; Plant response rating, Blackgrass ([13]; 125 g ai/ha): 0; Plant response rating, Blackgrass ([13]; 500 g ai/ha): 0; Ragweed plant response rating ([14]; 125 g ai/ha): 0; Ragweed plant response rating ([14]; 500 g ai/ha): 0; Ryegrass, Italian plant response rating ([15]; 125 g ai/ha): 0; Ryegrass, Italian plant response rating ([15]; 500 g ai/ha): 30; Kochia plant response rating ([16]; 125 g ai/ha): 0; Kochia plant response rating ([16]; 500 g ai/ha): 0; Barnyardgrass plant response rating ([17]; 125 g ai/ha): 0; Barnyardgrass plant response rating ([17]; 500 g ai/ha): 0; Plant response rating, Wheat ([18]; 125 g ai/ha): 0; Plant response rating, Wheat ([18]; 500 g ai/ha): 0; Plant response rating, Ducksalad (0 to 100 scale, 0 is no effect, 100 is complete control) [19]: 0; Plant response rating, Sedge, Umbrella (0 to 100 scale, 0 is no effect, 100 is complete control) [20]: 0 |
| Nc1nc(N[C@H](c2coc3ccccc23)C2CC2)ncc1C(F)(F)F [Compound 78] | 0 | 0 | 0 | 20 | 0 | 0 | 10 | 0 | 60 | 70 | 0 | 0 | 0 | 0 | 0 | 0 | 0 | 0 | 0 | 20 | Plant response rating, Ragweed ([12]; 125 g ai/ha): 0; Plant response rating, Ragweed ([12]; 500 g ai/ha): 0; Plant response rating, Blackgrass ([13]; 125 g ai/ha): 0; Plant response rating, Blackgrass ([13]; 500 g ai/ha): 0; Ragweed plant response rating ([14]; 125 g ai/ha): 0; Ragweed plant response rating ([14]; 500 g ai/ha): 20; Ryegrass, Italian plant response rating ([15]; 125 g ai/ha): 20; Ryegrass, Italian plant response rating ([15]; 500 g ai/ha): 50; Kochia plant response rating ([16]; 125 g ai/ha): 80; Kochia plant response rating ([16]; 500 g ai/ha): 90; Barnyardgrass plant response rating ([17]; 125 g ai/ha): 0; Barnyardgrass plant response rating ([17]; 500 g ai/ha): 0; Plant response rating, Wheat ([18]; 125 g ai/ha): 0; Plant response rating, Wheat ([18]; 500 g ai/ha): 0; Plant response rating, Ducksalad (0 to 100 scale, 0 is no effect, 100 is complete control) [19]: 0; Plant response rating, Sedge, Umbrella (0 to 100 scale, 0 is no effect, 100 is complete control) [20]: 0 |
